In paper PMC8119466, “A screen of FDA-approved drugs identifies inhibitors of protein tyrosine phosphatase 4A3 (PTP4A3 or PRL-3)” (Scientific Reports, 2021):
Where a name gives a salt, the structure may show the parent alone.

Key:
Assay type in all cases: biochemical
Details in all cases: FDA-approved drug screen; compared to DMSO
recombinant PRL-2 = molecular target: T1, recombinant PRL-2 (Homo sapiens, UniProt Q12974); assay: In vitro phosphatase assay (DiFMUP hydrolysis), PRL-2;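 further: PRL-2 activity read as DiFMUP hydrolysis after 20 min at room temperature with drug, enzyme first pre-reduced at 4 °C for 20 min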
T1 construct: 6xHis (N, cleaved yes); made in house; host or cells: E. coli One Shot BL21 Star
T1 sequence (Q12974 1-167): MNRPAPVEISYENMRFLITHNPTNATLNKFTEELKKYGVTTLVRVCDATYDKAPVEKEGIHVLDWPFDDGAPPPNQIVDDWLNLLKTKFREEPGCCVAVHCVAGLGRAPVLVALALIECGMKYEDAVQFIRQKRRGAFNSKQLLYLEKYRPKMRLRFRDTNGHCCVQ

recombinant PRL-1 = molecular target: T2, recombinant PRL-1 (Homo sapiens, UniProt Q93096); assay: In vitro phosphatase assay (DiFMUP hydrolysis), PRL-1; further: test concentration or dose not given here
T2 construct: 6xHis (N, cleaved yes); made in house; host or cells: E. coli One Shot BL21 Star
T2 sequence (Q93096 1-173): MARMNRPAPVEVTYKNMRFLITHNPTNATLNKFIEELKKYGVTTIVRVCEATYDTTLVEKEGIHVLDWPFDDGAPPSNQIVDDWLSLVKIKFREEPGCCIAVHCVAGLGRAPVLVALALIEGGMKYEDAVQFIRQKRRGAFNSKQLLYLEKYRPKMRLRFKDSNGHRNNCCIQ

recombinant PRL-3 = molecular target: T3, recombinant PRL-3 (Homo sapiens, UniProt O75365); assay: In vitro phosphatase assay (DiFMUP hydrolysis), PRL-3; further: test concentration or dose not given here
T3 construct: 6xHis (N, cleaved yes); made in house; host or cells: E. coli One Shot BL21 Star
T3 sequence (O75365 whole entry): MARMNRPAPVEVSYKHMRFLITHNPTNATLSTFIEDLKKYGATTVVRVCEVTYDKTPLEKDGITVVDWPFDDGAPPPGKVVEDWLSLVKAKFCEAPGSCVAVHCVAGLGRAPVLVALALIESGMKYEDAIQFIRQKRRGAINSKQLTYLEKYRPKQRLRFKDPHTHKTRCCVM

COc1ccc(C[C@@H]2c3cc(OC)c(OC)cc3CC[N@+]2(C)CCC(=O)OCCCCCOC(=O)CC[N@@+]2(C)CCc3cc(OC)c(OC)cc3[C@H]2Cc2ccc(OC)c(OC)c2)cc1OC [Cisatracurium Besylate]
% Phosphatase Activity (compared to DMSO) PRL-2 (recombinant PRL-2): 103% | % Phosphatase Activity (compared to DMSO) PRL-1 (recombinant PRL-1): 99% | % Phosphatase Activity (compared to DMSO) PRL-3 (recombinant PRL-3): 79%

CC(=O)NC1CCSC1=O (stereo not drawn) [Citiolone]
% Phosphatase Activity (compared to DMSO) PRL-2 (recombinant PRL-2): 106% | % Phosphatase Activity (compared to DMSO) PRL-1 (recombinant PRL-1): 114% | % Phosphatase Activity (compared to DMSO) PRL-3 (recombinant PRL-3): 93%

O.O.O.O.O=C([O-])CC(O)(CC(=O)[O-])C(=O)[O-].[Li+].[Li+].[Li+] [Citric acid trilithium salt tetrahydrate]
% Phosphatase Activity (compared to DMSO) PRL-2 (recombinant PRL-2): 92% | % Phosphatase Activity (compared to DMSO) PRL-1 (recombinant PRL-1): 93% | % Phosphatase Activity (compared to DMSO) PRL-3 (recombinant PRL-3): 89%

Nc1nc(Cl)nc2c1ncn2[C@H]1C[C@H](O)[C@@H](CO)O1 [Cladribine]
% Phosphatase Activity (compared to DMSO) PRL-2 (recombinant PRL-2): 93% | % Phosphatase Activity (compared to DMSO) PRL-1 (recombinant PRL-1): 98% | % Phosphatase Activity (compared to DMSO) PRL-3 (recombinant PRL-3): 82%

CCCC(=O)OCOC(=O)C1=C(C)NC(C)=C(C(=O)OC)C1c1cccc(Cl)c1Cl (stereo not drawn) [Clevidipine Butyrate]
% Phosphatase Activity (compared to DMSO) PRL-2 (recombinant PRL-2): 437% | % Phosphatase Activity (compared to DMSO) PRL-1 (recombinant PRL-1): 473% | % Phosphatase Activity (compared to DMSO) PRL-3 (recombinant PRL-3): 262%

Cc1cn([C@H]2O[C@@H](CO)[C@H](O)[C@H]2F)c(=O)[nH]c1=O [Clevudine]
% Phosphatase Activity (compared to DMSO) PRL-2 (recombinant PRL-2): 117% | % Phosphatase Activity (compared to DMSO) PRL-1 (recombinant PRL-1): 103% | % Phosphatase Activity (compared to DMSO) PRL-3 (recombinant PRL-3): 89%

CC(C)(C)C(=O)C(Oc1ccc(Cl)cc1)n1ccnc1 (stereo not drawn) [Climbazole]
% Phosphatase Activity (compared to DMSO) PRL-2 (recombinant PRL-2): 94% | % Phosphatase Activity (compared to DMSO) PRL-1 (recombinant PRL-1): 87% | % Phosphatase Activity (compared to DMSO) PRL-3 (recombinant PRL-3): 73%

CCC[C@@H]1C[C@@H](C(=O)N[C@@H]([C@H]2O[C@H](SC)[C@H](OP(=O)(O)O)[C@@H](O)[C@H]2O)[C@H](C)Cl)N(C)C1 [Clindamycin Phosphate]
% Phosphatase Activity (compared to DMSO) PRL-2 (recombinant PRL-2): 76% | % Phosphatase Activity (compared to DMSO) PRL-1 (recombinant PRL-1): 93% | % Phosphatase Activity (compared to DMSO) PRL-3 (recombinant PRL-3): 88%

CCCCCCCCCCCCCCCC(=O)O[C@@H]1[C@@H](O)[C@@H](O)[C@@H]([C@H](NC(=O)[C@@H]2C[C@@H](CCC)CN2C)[C@H](C)Cl)O[C@@H]1SC.Cl [Clindamycin palmitate HCl]
% Phosphatase Activity (compared to DMSO) PRL-2 (recombinant PRL-2): 133% | % Phosphatase Activity (compared to DMSO) PRL-1 (recombinant PRL-1): 107% | % Phosphatase Activity (compared to DMSO) PRL-3 (recombinant PRL-3): 106%

CCC(=O)O[C@]1(C(=O)CCl)[C@@H](C)C[C@H]2[C@@H]3CCC4=CC(=O)C=C[C@]4(C)[C@@]3(F)[C@@H](O)C[C@@]21C [Clobetasol propionate]
% Phosphatase Activity (compared to DMSO) PRL-2 (recombinant PRL-2): 88% | % Phosphatase Activity (compared to DMSO) PRL-1 (recombinant PRL-1): 92% | % Phosphatase Activity (compared to DMSO) PRL-3 (recombinant PRL-3): 78%

Nc1nc(Cl)nc2c1ncn2[C@@H]1O[C@H](CO)[C@@H](O)[C@@H]1F [Clofarabine]
% Phosphatase Activity (compared to DMSO) PRL-2 (recombinant PRL-2): 100% | % Phosphatase Activity (compared to DMSO) PRL-1 (recombinant PRL-1): 97% | % Phosphatase Activity (compared to DMSO) PRL-3 (recombinant PRL-3): 81%

CC(C)/N=c1\cc2n(-c3ccc(Cl)cc3)c3ccccc3nc-2cc1Nc1ccc(Cl)cc1 [Clofazimine]
% Phosphatase Activity (compared to DMSO) PRL-2 (recombinant PRL-2): 96% | % Phosphatase Activity (compared to DMSO) PRL-1 (recombinant PRL-1): 78% | % Phosphatase Activity (compared to DMSO) PRL-3 (recombinant PRL-3): 69%

CC(C)(Oc1ccc(Cl)cc1)C(=O)O [Clofibric Acid]
% Phosphatase Activity (compared to DMSO) PRL-2 (recombinant PRL-2): 95% | % Phosphatase Activity (compared to DMSO) PRL-1 (recombinant PRL-1): 99% | % Phosphatase Activity (compared to DMSO) PRL-3 (recombinant PRL-3): 81%

CC(C)(C)CC(C)(C)c1ccc(O)c(Cc2ccc(Cl)cc2Cl)c1 [Clofoctol]
% Phosphatase Activity (compared to DMSO) PRL-2 (recombinant PRL-2): 87% | % Phosphatase Activity (compared to DMSO) PRL-1 (recombinant PRL-1): 91% | % Phosphatase Activity (compared to DMSO) PRL-3 (recombinant PRL-3): 83%

CCN(CC)CCOc1ccc(C(=C(Cl)c2ccccc2)c2ccccc2)cc1 [Clomifene citrate]
% Phosphatase Activity (compared to DMSO) PRL-2 (recombinant PRL-2): 128% | % Phosphatase Activity (compared to DMSO) PRL-1 (recombinant PRL-1): 120% | % Phosphatase Activity (compared to DMSO) PRL-3 (recombinant PRL-3): 96%

CN(C)CCCN1c2ccccc2CCc2ccc(Cl)cc21 [Clomipramine HCl]
% Phosphatase Activity (compared to DMSO) PRL-2 (recombinant PRL-2): 114% | % Phosphatase Activity (compared to DMSO) PRL-1 (recombinant PRL-1): 108% | % Phosphatase Activity (compared to DMSO) PRL-3 (recombinant PRL-3): 96%
